Measurements taken from article PMC10056443, “Derivatives of Amaryllidaceae Alkaloid Ambelline as Selective Inhibitors of Hepatic Stage of Plasmodium berghei Infection In Vitro” (Pharmaceutics, 2023).
Read-outs that look alike come from different tables or passages of the source.

Legend:
[1] = test system: hepatic stage of P. berghei; assay: In vitro activity against P. berghei hepatic stages (luciferase-expressing sporozoites in Huh-7 cells, bioluminescence); type: cell-based, Plasmodium berghei; conditions: for activity at 1 µM / activity at 10 µM / IC50: Plasmodium berghei; for activity at 1 µM / activity at 10 µM: Huh-7, 48 h, DMSO = 100, read-out: INFECTION Ø screening
Description: Activity against the hepatic stage of P. berghei infection was assessed using the human hepatoma cell line Huh-7 (deposited at the Japanese Collection of Research Bioresources under JCRB0403). The protocol was previously comprehensively described by Prudêncio et al. and by Ploemen et al.. […] Cells were seeded in 96-well plates at a density of 1 × 10^4 cells per well in 100 µL of culture medium and incubated at 37 °C with 5% CO2 for approximately 18 h. […] The culture medium was substituted by infection medium with diluted compounds 1 hour in advance of infection. Luciferase-expressing P. berghei sporozoites (PbA-LuciGFPcon spz) were freshly obtained through the dissection of salivary glands from infected female Anopheles stephensi mosquitoes. Sporozoites were added to the cells at 1:1 ratio, i.e., 1 × 10^4 sporozoites were added per well, and then subjected to centrifugation at 1800× g for 5 min. The plate was then incubated for 46 h at 37 °C with 5% CO2, at which time Huh-7 cell confluency was indirectly assessed by the alamarBlue assay (Invitrogen, Waltham, MA, USA), as reported in the manufacturer’s protocol. Parasite load was assessed 48 h post-infection by a bioluminescence assay, as reported by the manufacturer (Biotium, Fremont, CA, USA). GraphPad Prism 8 (GraphPad Software, Inc., La Jolla, CA, USA) was used to obtain IC50 values using nonlinear regression analysis to fit the dose-response curves normalized results.

Huh-7 cell line = assay: Huh-7 cell confluency by alamarBlue assay during hepatic-stage test; type: cell-based
Description: Activity against the hepatic stage of P. berghei infection was assessed using the human hepatoma cell line Huh-7 (deposited at the Japanese Collection of Research Bioresources under JCRB0403). The protocol was previously comprehensively described by Prudêncio et al. and by Ploemen et al.. Briefly, cell culture medium consisted of 1640 RPMI medium supplemented with 10% v/v fetal calf serum, 1% v/v L-glutamine, 1% v/v nonessential amino acids, 1% v/v penicillin/streptomycin, and 10 mM HEPES, pH 7. Cells were seeded in 96-well plates at a density of 1 × 10^4 cells per well in 100 µL of culture medium and incubated at 37 °C with 5% CO2 for approximately 18 h. […] The culture medium was substituted by infection medium with diluted compounds 1 hour in advance of infection. Luciferase-expressing P. berghei sporozoites (PbA-LuciGFPcon spz) were freshly obtained through the dissection of salivary glands from infected female Anopheles stephensi mosquitoes. Sporozoites were added to the cells at 1:1 ratio, i.e., 1 × 10^4 sporozoites were added per well, and then subjected to centrifugation at 1800× g for 5 min. The plate was then incubated for 46 h at 37 °C with 5% CO2, at which time Huh-7 cell confluency was indirectly assessed by the alamarBlue assay (Invitrogen, Waltham, MA, USA), as reported in the manufacturer’s protocol. Parasite load was assessed 48 h post-infection by a bioluminescence assay, as reported by the manufacturer (Biotium, Fremont, CA, USA). GraphPad Prism 8 (GraphPad Software, Inc., La Jolla, CA, USA) was used to obtain IC50 values using nonlinear regression analysis to fit the dose-response curves normalized results.

[2] = test system: P. falciparum NF54 ring-stage synchronized cultures; assay: In vitro activity against P. falciparum blood stages (flow cytometry, SYBR green I); type: cell-based, Plasmodium falciparum; conditions: Control = 7.76333, 48 h
Description: Activity against the blood stage of P. falciparum infection was assessed by flow cytometry analysis following the incubation of either test compounds or the drug vehicle (DMSO) with ring-stage synchronized parasite cultures, as previously described. Stock solutions of the test compounds, as well as of the positive control compound chloroquine, were prepared in DMSO and diluted to test concentrations in complete malaria culture medium (CMCM), i.e., 1640 RPMI medium supplemented with 25 mM HEPES, 2.4 mM L-glutamine, 50 µg/mL gentamicin, 0.5% w/v Albumax, 11 mM glucose, 1.47 mM hypoxanthine, and 37.3 mM NaHCO3. Samples at tested concentration were then incubated with ring-stage synchronized cultures of P. falciparum NF54 at 2.5% hematocrit and at approximately 1% parasitemia in 96-well plates at 37 °C in a 5% CO2 and 5% O2 atmosphere. Forty-eight hours post incubation, parasite load was assessed by flow cytometry, upon staining with the DNA-specific dye SYBR green I. Approximately 100,000 events were analyzed in each flow cytometry measurement.

HepG2 cells = assay: Cytotoxicity assessment in vitro (MTT assay); type: cell-based
Description: (§1) HepG2 cells of human hepatocellular carcinoma (ATCC HB-8065; passage 20–25), purchased from Health Protection Agency Culture Collections (ECACC, Salisbury, UK), were cultured in Minimum Essential Medium Eagle supplemented with 10% v/v fetal bovine serum and 1% v/v L-glutamine solution (Sigma-Aldrich, St. Louis, MO, USA) at 37 °C in a humidified atmosphere containing 5% CO2. For passaging, the cells were treated with trypsin/EDTA (Sigma-Aldrich, St. Louis, MO, USA) at 37 °C and then harvested. For the cytotoxicity evaluation, the cells treated with the test substances were used, while untreated HepG2 cells served as a control group. The cells were seeded in a 96-well plate at a density of 1 × 10^4 cells per well and incubated for 24 h. All tested compounds were dissolved in DMSO to prepare 10 mM stock solutions and diluted to the desired concentration just before the cell treatment. Cytotoxicity of all studied derivatives was screened at 10 μM concentration, and all samples were measured in triplicates. Positive and negative controls were also included. Plates were incubated for 24 h in a humidified atmosphere containing 5% CO2 at 37 °C. After the incubation, a solution of thiazolyl blue tetrazolium bromide (Sigma-Aldrich, St. Louis, MO, USA) in RPMI 1640 medium without phenol red (BioTech, Prague, Czech Republic) was added and incubated for 3 h in a humidified atmosphere containing 5% CO2 at 37 °C. Afterwards, formazan crystals were dissolved in DMSO, and the absorbance of samples was recorded at 570 nm (Synergy Neo2 Multi-Mode Reader NEO2SMALPHAB; BioTek, Winooski, VT, USA).

[3] = Cytotoxicity assessment in vitro (MTT assay); type: cell-based; conditions: human
Description: as §1

[4] = Huh-7, mean, unit (Table 1: µM), read-out: Antiplasmodial activity - Ø IC50
[5] = Huh-7, replicate 1, unit (Table 1: µM), read-out: Antiplasmodial activity - IC50 determination, 1. measurement
[6] = Huh-7, replicate 2, unit (Table 1: µM), read-out: Antiplasmodial activity - IC50 determination, 2. measurement
[7] = Huh-7, replicate 3, unit (Table 1: µM), read-out: Antiplasmodial activity - IC50 determination, 3. measurement
[8] = hepatic stage, Huh-7 cells, parasite load 48 h post-infection, read-out: IC50 P. berghei
[9] = at 1 μM, DMSO = 100, in % (unit assumed)
[10] = at 10 μM, DMSO = 100, in % (unit assumed)
[11] = c = 10 µM, 24 h, MTT, read-out: HepG2 % of cell viability compared to non-treated control (100%)

Compound | activity at 1 µM [1] | activity at 10 µM [1] | IC50 [1, 4] | IC50 [1, 5] | IC50 [1, 6] | IC50 [1, 7] | IC50 [1, 8] | CELL CONFLUENCY Ø screening (Huh-7 cell line; human, 46 h, 1 µM, pH 7) | CELL CONFLUENCY Ø screening (Huh-7 cell line; human, 46 h, 10 µM, pH 7) | Ø screening, blood stage parasite load ([2]; at 10 nM) | Ø screening, blood stage parasite load ([2]; at 500 nM) | Ø screening, blood stage parasite load ([2]; at 100 nm) | 1. screening of cytotoxic potential, HepG2 cell line (HepG2 cells; human, 24 h, 10 µM) | 2. screening of cytotoxic potential, HepG2 cell line (HepG2 cells; human, 24 h, 10 µM) | 3. screening of cytotoxic potential, HepG2 cell line (HepG2 cells; human, 24 h, 10 µM) | Ø screening, HepG2 (sheet Graphs) (HepG2 cells; human, 24 h, 10 µM) | viability at 24 h, 10 µM [3] | other results
COc1c2c(cc3c1OCO3)[C@]13C=C[C@H](OC)C[C@H]1N(C2)C[C@H]3OC(=O)c1ccc([N+](=O)[O-])cc1 [28q, 11-O-(4-Nitrobenzoyl)ambelline] | 64.6% | 3.9% | 1.2 µM | 1.17 µM | 1.03 µM | 1.39 µM | 1.2 ± 0.18 µM | 102 | 102.2 | 6.94 | 4.487 | 4.835 | 48.34 | 59.99 | 49.2 | 52.51 | 53 ± 6% | 
CCCCC(=O)O[C@@H]1CN2Cc3c(cc4c(c3OC)OCO4)[C@@]13C=C[C@H](OC)C[C@@H]23 [28d, 11-O-Pentanoylambelline] | 93.9% | 25.2% | 4.08 µM | 5.65 µM | 2.14 µM | 4.44 µM | 4.08 ± 1.78 µM | 95.31 | 93.14 | 6.99 | 6.78 | 7.043 | 73.78 | 63.13 | 76.88 | 71.26 | 71 ± 7% | 
COc1c2c(cc3c1OCO3)[C@]13C=C[C@H](OC)C[C@H]1N(C2)C[C@H]3OC(=O)c1ccc([N+](=O)[O-])cc1Cl [28s, 11-O-(2-Chloro-4-nitrobenzoyl)ambelline] | 48.2% | 1.4% |  |  |  |  |  | 95.79 | 77.1 | 7.46 | 7.523 | 7.653 | 55.56 | 46.62 | 58.6 | 53.59 | 54 ± 6% | activity against P. berghei hepatic stages ([1]; screening at 10 and 1 µM / IC50 determination): not dose-dependent
COc1c2c(cc3c1OCO3)[C@]13C=C[C@H](OC)C[C@H]1N(C2)C[C@H]3OC(=O)C(C)C [28c, 11-O-Isobutanoylambelline] | 89.1% | 59.8% |  | 15.5 µM | 14.4 µM |  | > 10 µM | 94.69 | 93.64 | 7.643 | 7.21 | 8.26 | 97.78 | 100.15 | 88.22 | 95.38 | 95 ± 6% | 
COc1c2c(cc3c1OCO3)[C@]13C=C[C@H](OC)C[C@H]1N(C2)C[C@H]3OC(=O)c1ccc(C)cc1 [28g, 11-O-(4-Methylbenzoyl)ambelline] | 23.1% | 0.21% | 0.402 µM | 0.345 µM | 0.46 µM |  | 0.402 ± 0.081 µM | 89.36 | 93.96 | 5.187 | 4.26 | 4.963 | 50.18 | 56.25 | 43.46 | 49.96 | 50 ± 6% | 
COc1cccc(C(=O)O[C@@H]2CN3Cc4c(cc5c(c4OC)OCO5)[C@@]24C=C[C@H](OC)C[C@@H]34)c1 [28j, 11-O-(3-Methoxybenzoyl)ambelline] | 10.8% | 0.612% |  | 0.19 µM | 0.362 µM | 0.232 µM | 0.261 ± 0.09 µM |  |  |  |  |  |  |  |  |  |  | CELL CONFLUENCY Ø screening (Huh-7 cell line; [9]): 109.9; CELL CONFLUENCY Ø screening (Huh-7 cell line; [10]): 81.02; Ø screening, HepG2 (sheet Graphs) (HepG2 cells; c = 10 μM, DMSO = 100, in %): 80.77; 1. screening of cytotoxic potential, HepG2 cell line (HepG2 cells; c = 10 μM, replicate 1, in %): 69.18; 2. screening of cytotoxic potential, HepG2 cell line (HepG2 cells; c = 10 μM, replicate 2, in %): 85.98; 3. screening of cytotoxic potential, HepG2 cell line (HepG2 cells; c = 10 μM, replicate 3, in %): 87.15; viability at 24 h, 10 µM [3, 11]: 81 ± 10%
COc1ccc(C(=O)O[C@@H]2CN3Cc4c(cc5c(c4OC)OCO5)[C@@]24C=C[C@H](OC)C[C@@H]34)cc1 [28k, 11-O-(4-Methoxybenzoyl)ambelline] | 19.9% | 0.872% |  | 0.446 µM | 0.456 µM |  | 0.451 ± 0.007 µM |  |  |  |  |  |  |  |  |  |  | CELL CONFLUENCY Ø screening (Huh-7 cell line; [9]): 107.6; CELL CONFLUENCY Ø screening (Huh-7 cell line; [10]): 76.48; Ø screening, HepG2 (sheet Graphs) (HepG2 cells; c = 10 μM, DMSO = 100, in %): 87.88; 1. screening of cytotoxic potential, HepG2 cell line (HepG2 cells; c = 10 μM, replicate 1, in %): 88.02; 2. screening of cytotoxic potential, HepG2 cell line (HepG2 cells; c = 10 μM, replicate 2, in %): 89.64; 3. screening of cytotoxic potential, HepG2 cell line (HepG2 cells; c = 10 μM, replicate 3, in %): 85.98; viability at 24 h, 10 µM [3, 11]: 88 ± 2%
